Source: PMC9140012, “Epigenetic-Like Stimulation of Receptor Expression in SSTR2 Transfected HEK293 Cells as a New Therapeutic Strategy” (Cancers, 2022)
Where a name gives a salt, the structure may show the parent alone. Read-outs that look alike come from different tables or passages of the source.

Legend:
PC3 [1] = assay: Chemotoxicity, colony formation assay (CFA), PC3; format: cell-based, human; conditions: for Survival Fraction: day one to three in deficient RPMI 1640, 2 days full medium, CFA, ± SD; for IC50: Homo sapiens, PC-3
Experimental: (§1) HEK293 cells were obtained from the German Resource Center for Biological Material (DSMZ, Braunschweig, Germany) and grown in Dulbecco’s modified Eagle´s medium supplemented with 10% fetal calf serum (FCS) in a humidified atmosphere containing 5% CO2. Cells were transfected with plasmid, encoding murine HA-tagged SSTR2 receptors using lipofectamine according to the manufacturing instructions (Thermofisher, Darmstadt, Germany). Stable transfectants were selected in the presence of 500 µg/mL G-418 and characterized using radioligand binding assays, Western blot analyses, surface ELISA assays and immunocytochemistry as described previously. Non-transfected HEK293 cells were maintained under equal conditions as HEKsst2 except for the addition of G-418. In the following, HEK293 cells and SSTR2 transfected HEK293 cells are termed as HEK and HEKsst2, respectively. The human prostate carcinoma cell line PC3 (ATCC®, Manassas, VA, USA) was cultured in a RPMI medium with 10% (v/v) FCS and 1% (v/v) non-essential amino acids (NEA). […] The culture medium of each cell line was renewed every 2–3 days. Via a PCR test, each cell line is proven to be free of mycoplasmas.
(§2) HEKsst2 and PC3 were plated in T75 flasks on day zero. […] Cells were incubated in DMEM (HEKsst2) or an RPMI 1640 (PC3) nutrient-deficient medium (lacking medium additives and FCS) until day three at 37 °C. For a further two days, HEKsst2 and PC3 were incubated in a full medium (with medium additives and FCS). On day five, cells were trypsinized and plated for the CFAs.
(§3) To determine the radiosensitivity and radiotoxicity, the clonogene cell survival was analyzed. Colony formation assays were performed as described earlier. […] Briefly, after detaching the treated cells, an aliquot of the cell suspension per dose point was distributed in T25 culture flasks for the colony formation test and is placed in an incubator for 7 (HEKsst2) or 10 days (PC3). To stop colony formation, the cells were fixed with ethanol 80% (v/v) followed by staining with crystal violet solution. The colony counting was carried out under a microscope (25× magnification). Colonies of more than 50 cells were scored as survivors. The plating efficiency (PE) and the survival rate (survival fraction SF) were calculated for irradiated and unirradiated cells based on the number of seeded cells.
(§4) To examine the statistical significance, an unpaired student’s t-test was used. A difference between two independent samples is significant if the probability of error p ≤ 0.05. For the statistical evaluation, MS Office Excel was used. […]

HEKsst2 = assay: Chemotoxicity, colony formation assay (CFA), HEKsst2; format: cell-based; conditions: for IC50: read-out: half maximum inhibitor concentrations (IC50)
Experimental: as §1, §2, §3, §4

[2] = set-up: method as in PMID 25600060; conditions: fractionated external radiation; cited from earlier work
[3] = tested on: cell lines HEKsst2 and PC3; assay: IC20/IC40 of single epidrugs by colony formation assay, HEKsst2 and PC3; format: cell-based
Experimental: as §2
To determine the radiosensitivity and radiotoxicity, the clonogene cell survival was analyzed. Colony formation assays were performed as described earlier. The following steps have been done for each of the treatment procedures. Briefly, after detaching the treated cells, an aliquot of the cell suspension per dose point was distributed in T25 culture flasks for the colony formation test and is placed in an incubator for 7 (HEKsst2) or 10 days (PC3). To stop colony formation, the cells were fixed with ethanol 80% (v/v) followed by staining with crystal violet solution. The colony counting was carried out under a microscope (25× magnification). Colonies of more than 50 cells were scored as survivors. The plating efficiency (PE) and the survival rate (survival fraction SF) were calculated for irradiated and unirradiated cells based on the number of seeded cells.
To determine the Bmax values and the Kd, the GraphPad Prism 9.0 software was used. Confidence Intervals (CI) express a 95% likelihood of the nonlinear fit.

[4] = tested on: relapsed or refractory neuroblastoma; set-up: method as in PMID 34270348; conditions: I-131-MIBG in combination with vorinostat, phase II; cited from earlier work
Description: An overview of studies investigating the synergistic improvement of cancer therapy using HDACi in clinical trials is given by Hontecillas-Prieto et al..

[5] = tested on: Neuroendocrine Tumor Cells; set-up: method as in PMID 30796167; conditions: 5-fluorouracil in combination with decitabine or tacedinaline; cited from earlier work
PC3 [6] = conditions: PC3 compared to HEKsst2; cited from earlier work
Description: The radiosensitivity expressed as SF after external X-ray irradiation is similar for the cell lines HEKsst2 and PC3 (Figure 4). […] One exception is the dose point at 0.6 Gy X-rays for not stimulated vs. stimulated PC3 cells. […] Whereas the radiosensitivity of non-stimulated HEK ...

For `CCCC(CCC)C(=O)O` [VPA, valproic acid sodium salt], the Survival Fraction (PC3 [1]; 0.1 mM VPA) was 95.6 ± 4.5%, the Survival Fraction (PC3 [1]; 0.5 mM VPA) was 95.6 ± 2.3% and the Survival Fraction (PC3 [1]; 1.0 mM VPA) was 72.6 ± 11.6%. The Survival Fraction (PC3 [1]; 2.5 mM VPA) was 69.4 ± 6.0%, the Survival Fraction (PC3 [1]; 5.0 mM VPA) was 35.1 ± 4.6% and the Survival Fraction (PC3 [1]; 10 mM VPA) was 24.0 ± 1.2%. The Survival Fraction (PC3 [1]; 25 mM VPA) was 1.2 ± 1.1%, the Survival Fraction (PC3 [1]; 50 mM VPA) was 1.7 ± 1.1% and the IC50 (PC3 [1]; read-out: IC50) was 3900 µM. It also gave a Survival Fraction (HEKsst2; 0.5 mM VPA, day one to three in deficient medium, 2 days full medium, CFA, ± SD) of 78.7 ± 10.8%, a Survival Fraction (HEKsst2; 1.0 mM VPA, day one to three in deficient medium, 2 days full medium, CFA, ± SD) of 67.5 ± 15.9% and a Survival Fraction (HEKsst2; 2.5 mM VPA, day one to three in deficient medium, 2 days full medium, CFA, ± SD) of 18.5 ± 2.2%. The Survival Fraction (HEKsst2; 5.0 mM VPA, day one to three in deficient medium, 2 days full medium, CFA, ± SD) was 21.0 ± 5.1%, the Survival Fraction (HEKsst2; 10 mM VPA, day one to three in deficient medium, 2 days full medium, CFA, ± SD) was 53.5 ± 5.8% and the Survival Fraction (HEKsst2; 25 mM VPA, day one to three in deficient medium, 2 days full medium, CFA, ± SD) was 8.0 ± 0.8%. For the same molecule, the IC50 (HEKsst2) was 1850 µM, the radiosensitization [2] was “radiosensitization effect” and the IC20 [3] was 600 µM. For the same molecule, the IC40 ([3]; VPA, value used for both HEKsst2 and PC3, CFA) was 1000 µM.

For `O=C(CCCCCCC(=O)Nc1ccccc1)NO` [vorinostat], the radiation sensitizing [4] is listed as “beneficial radiation sensitizing properties”.

In the case of `O=c1[nH]cc(F)c(=O)[nH]1` [5-fluorouracil], the radiosensitization [5] is listed as “significant effects on radiosensitization”.

For `Nc1ncn([C@H]2C[C@H](O)[C@@H](CO)O2)c(=O)n1` [5-aza-dC, 5-aza-2′-deoxycytidine], the “Survival Fraction” value (PC3 [1]; 0.01 µM 5-aza-dC) was 67.1 ± 3.3%, the “Survival Fraction” value (PC3 [1]; 0.05 µM 5-aza-dC) was 52.1 ± 19.0% and the “Survival Fraction” value (PC3 [1]; 0.1 µM 5-aza-dC) was 69.4 ± 2.1%. For the same molecule, the “Survival Fraction” value (PC3 [1]; 0.5 µM 5-aza-dC) was 41.6 ± 1.8%, the “Survival Fraction” value (PC3 [1]; 1.0 µM 5-aza-dC) was 24.9 ± 2.0% and the “Survival Fraction” value (PC3 [1]; 5.0 µM 5-aza-dC) was 27.5 ± 3.2%. For the same molecule, the “Survival Fraction” value (PC3 [1]; 10 µM 5-aza-dC) was 9.4 ± 0.3%, the “Survival Fraction” value (PC3 [1]; 25 µM 5-aza-dC) was 1.9 ± 0.02% and the IC50 (PC3 [1]) was 0.3 µM. For the same molecule, the “survival of 5-aza-dC treated cells” value (PC3 [6]) was “lower survival”, the “Survival Fraction” value (HEKsst2; 0.01 µM 5-aza-dC, added day one to day three in nutrient-deficient DMEM, then 2 days full medium, CFA day five, mean ± SD, three independent trials in triplicate) was 97.9 ± 1.8% and the “Survival Fraction” value (HEKsst2; 0.05 µM 5-aza-dC, day one to three in deficient medium, 2 days full medium, CFA, ± SD) was 118.0 ± 31%. The “Survival Fraction” value (HEKsst2; 0.1 µM 5-aza-dC, day one to three in deficient medium, 2 days full medium, CFA, ± SD) was 83.2 ± 4.8%, the “Survival Fraction” value (HEKsst2; 0.5 µM 5-aza-dC, day one to three in deficient medium, 2 days full medium, CFA, ± SD) was 96.6 ± 13.2% and the “Survival Fraction” value (HEKsst2; 1.0 µM 5-aza-dC, day one to three in deficient medium, 2 days full medium, CFA, ± SD) was 93.7 ± 1.3%. For the same molecule, the “Survival Fraction” value (HEKsst2; 5.0 µM 5-aza-dC, day one to three in deficient medium, 2 days full medium, CFA, ± SD) was 42.3 ± 4.8%, the “Survival Fraction” value (HEKsst2; 10 µM 5-aza-dC, day one to three in deficient medium, 2 days full medium, CFA, ± SD) was 18.6 ± 0.8% and the “Survival Fraction” value (HEKsst2; 25 µM 5-aza-dC, day one to three in deficient medium, 2 days full medium, CFA, ± SD) was 1.7 ± 0.4%. For the same molecule, the IC50 (HEKsst2; 5-aza-dC as single epidrug, HEKsst2, CFA) was 3.9 µM and the IC20 ([3]; 5-aza-dC, value used for both HEKsst2 and PC3, CFA) was 0.25 µM.
